We go through 23 compounds from patent publication US11247990B1, “Bicyclic fused pyridine compounds as inhibitors of TAM kinases” (ARRAY BIOPHARMA INC., priority 2017, dated 2022).

Molecules are shown by their SMILES. A value given as a limit tells only on which side of the number the result lay.

What all share (settings): averaged IC50
Assay [1] addresses GST-tagged recombinant human TYRO3 kinase domain (Homo sapiens (Human), UniProt Q06418). Nature of the assay: TYRO3 Enzyme Assay (LanthaScreen Eu Kinase Binding, TR-FRET). The essentials:
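LanthaScreen Eu binding (tracer displacement) format read by TR-FRET after 60 min at 22 °C. Emission ratio converted to percent of control; IC50 taken where a 4-parameter logistic fit crosses 50 POC.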
On the technique in general: Time-resolved FRET reads energy transfer from a long-lived donor to a nearby acceptor.

Assay [2] deals with His-tagged recombinant human AXL cytoplasmic domain (Homo sapiens (Human), UniProt P30530). Nature of the assay: AXL Enzyme Assay (LanthaScreen Eu Kinase Binding, TR-FRET). As for the experimental part: Compounds of Formula I were screened for their ability to inhibit AXL kinase using Invitrogen's LanthaScreen™ Eu Kinase Binding technology. […] After a 60-minute incubation at 22° C., the reaction was measured using a PerkinElmer EnVision multimode plate reader via TR-FRET dual wavelength detection, and the percent of control (POC) was calculated using a ratiometric emission factor. […] The POC values are fit to a 4 parameter logistic curve and the IC50 value is point where the curve crosses 50 POC.
His-tagged recombinant human AXL cytoplasmic domain, sequence (P30530 473-894): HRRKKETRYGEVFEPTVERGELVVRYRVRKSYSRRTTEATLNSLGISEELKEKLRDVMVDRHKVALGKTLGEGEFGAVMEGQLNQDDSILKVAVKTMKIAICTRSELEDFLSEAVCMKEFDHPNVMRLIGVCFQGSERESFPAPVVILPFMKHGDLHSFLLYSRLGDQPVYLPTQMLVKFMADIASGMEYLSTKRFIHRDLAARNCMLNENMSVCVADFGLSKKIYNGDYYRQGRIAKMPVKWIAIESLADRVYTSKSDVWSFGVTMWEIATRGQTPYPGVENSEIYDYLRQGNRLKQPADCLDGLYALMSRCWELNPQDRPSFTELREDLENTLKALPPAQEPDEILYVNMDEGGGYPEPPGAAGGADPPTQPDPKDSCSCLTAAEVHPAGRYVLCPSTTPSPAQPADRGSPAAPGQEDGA

For assay [3], the target named is His-tagged recombinant human MER cytoplasmic domain (Homo sapiens (Human), UniProt Q12866). Kind of assay: MER Enzyme Assay (LanthaScreen Eu Kinase Binding, TR-FRET). The essentials:
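Percent of control, derived from ratiometric TR-FRET emission, was fitted to a 4-parameter logistic curve and IC50 taken at 50 POC. Binding was read after 60 min at 22 °C using Eu-based LanthaScreen technology and recombinant His-tagged MER cytoplasmic domain.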

GST-tagged recombinant human TYRO3 kinase domain, sequence (Q06418 518-790): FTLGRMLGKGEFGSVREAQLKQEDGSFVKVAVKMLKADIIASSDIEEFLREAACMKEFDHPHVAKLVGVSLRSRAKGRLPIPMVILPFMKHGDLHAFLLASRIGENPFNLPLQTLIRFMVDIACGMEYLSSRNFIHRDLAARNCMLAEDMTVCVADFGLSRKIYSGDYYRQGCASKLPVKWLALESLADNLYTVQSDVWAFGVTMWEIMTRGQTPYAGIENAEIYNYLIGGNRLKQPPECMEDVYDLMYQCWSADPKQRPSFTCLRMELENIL
His-tagged recombinant human MER cytoplasmic domain, sequence (Q12866 527-999): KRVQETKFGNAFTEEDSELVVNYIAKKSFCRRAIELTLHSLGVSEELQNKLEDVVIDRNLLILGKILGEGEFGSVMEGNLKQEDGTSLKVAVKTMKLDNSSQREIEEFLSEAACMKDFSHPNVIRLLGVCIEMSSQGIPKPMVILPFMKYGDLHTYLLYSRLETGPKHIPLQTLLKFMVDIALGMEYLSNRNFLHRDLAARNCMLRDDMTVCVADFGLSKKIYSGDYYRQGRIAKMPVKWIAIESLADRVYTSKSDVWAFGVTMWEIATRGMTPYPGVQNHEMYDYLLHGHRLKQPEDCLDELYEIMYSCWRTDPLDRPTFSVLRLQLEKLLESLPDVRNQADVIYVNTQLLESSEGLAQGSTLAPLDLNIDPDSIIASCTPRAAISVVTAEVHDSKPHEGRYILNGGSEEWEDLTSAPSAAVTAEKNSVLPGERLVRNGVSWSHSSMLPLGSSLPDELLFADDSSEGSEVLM

In general, IC50 refers to the midpoint of a concentration-inhibition curve. As to `CNc1cc2c(cn1)c(-c1cnn(C)c1)nn2[C@@H]1CC[C@H](Oc2ccccc2)[C@@H](O)C1` (racemic) [Example 470, Racemic-(1S,2S,5R)-5-(3-(1-methyl-1H-pyrazol-4-yl)-6-(methylamino)-1H-pyrazolo[4,3-c]pyridin-1-yl)-2-phenoxycyclohexan-1-ol], the values for the IC50 in assay [1], in assay [2] and in assay [3] were 10 to 100 nM, less than 10 nM and less than 10 nM, respectively.

In the case of `CCNc1cc2c(cn1)c(-c1ccn(CCN3CCOCC3)n1)nn2[C@H]1CC[C@@H](Oc2ccc(=O)n(C)n2)CC1` [Example 101, 6-(((1s,4s)-4-(6-(ethylamino)-3-(1-(2-morpholinoethyl)-1H-pyrazol-3-yl)-1H-pyrazolo[4,3-c]pyridin-1-yl)cyclohexyl)oxy)-2-methylpyridazin-3(2H)-one], the IC50 in assay [1] and in assay [2] was 1000 to 10000 nM each time.

Regarding `CCNc1cc2c(cn1)c(-c1cnn(C)c1)nn2[C@H]1CC[C@@H](Oc2cccn(C)c2=O)CC1` [Example 109, 3-(((1s,4s)-4-(6-(ethylamino)-3-(1-methyl-1H-pyrazol-4-yl)-1H-pyrazolo[4,3-c]pyridin-1-yl)cyclohexyl)oxy)-1-methylpyridin-2(1H)-one], the IC50 in assay [1] and in assay [2] was 1000 to 10000 nM each time.

For the compound `CCNc1cc2c(cn1)c(-c1ccc3c(c1)CN(C)S3(=O)=O)nn2[C@H]1CC[C@@H](Oc2cnn(C)c2C(F)(F)F)CC1` [Example 224, 5-(6-(ethylamino)-1-((1s,4s)-4-((1-methyl-5-(trifluoromethyl)-1H-pyrazol-4-yl)oxy)cyclohexyl)-1H-pyrazolo[4,3-c]pyridin-3-yl)-2-methyl-2,3-dihydrobenzo[d]isothiazole 1,1-dioxide], the IC50 in assay [1] and in assay [2] was 1000 to 10000 nM throughout.

On to `CCNc1cc2c(cn1)c(-c1cnn(CC(=O)N(C)C)c1)nn2[C@H]1CC[C@@H](Oc2nccc(C(F)(F)F)c2F)CC1` [Example 259, 2-(4-(6-(ethylamino)-1-((1s,4s)-4-((3-fluoro-4-(trifluoromethyl)pyridin-2-yl)oxy)cyclohexyl)-1H-pyrazolo[4,3-c]pyridin-3-yl)-1H-pyrazol-1-yl)-N,N-dimethylacetamide], for which the IC50 in assay [2] and in assay [3] was less than 10 nM each time.

Turning to `CNc1cc2c(cn1)c(-c1ccc3c(c1)CNC3=O)nn2[C@H]1CC[C@@H](Oc2cnn(C)c2C(F)(F)F)CC1` [Example 266, 5-(1-((1s,4s)-4-((1-methyl-5-(trifluoromethyl)-1H-pyrazol-4-yl)oxy)cyclohexyl)-6-(methylamino)-1H-pyrazolo[4,3-c]pyridin-3-yl)isoindolin-1-one], the IC50 in assay [2] and in assay [3] was less than 10 nM throughout.

Regarding `CCNc1cc2c(cn1)c(-c1cnc(C)nc1)nn2[C@H]1CC[C@@H](Oc2nccc(C(F)(F)F)c2F)CC1` [Example 268, N-ethyl-1-((1s,4s)-4-((3-fluoro-4-(trifluoromethyl)pyridin-2-yl)oxy)cyclohexyl)-3-(2-methylpyrimidin-5-yl)-1H-pyrazolo[4,3-c]pyridin-6-amine], the IC50 in assay [2] and in assay [3] was less than 10 nM throughout.

As to `CCNc1cc2c(cn1)c(C1CCOCC1)nn2[C@H]1CC[C@@H](Oc2nccc(C(F)(F)F)c2F)CC1` [Example 317, N-ethyl-1-((1s,4s)-4-((3-fluoro-4-(trifluoromethyl)pyridin-2-yl)oxy)cyclohexyl)-3-(tetrahydro-2H-pyran-4-yl)-1H-pyrazolo[4,3-c]pyridin-6-amine], the IC50 in assay [2] and in assay [3] was less than 10 nM throughout.

As for `CCNc1cc2c(cn1)c(C1CCOC1)nn2[C@H]1CC[C@@H](Oc2nccc(C(F)(F)F)c2F)CC1` (some centres unmarked) [Example 323, N-ethyl-1-((1s,4s)-4-((3-fluoro-4-(trifluoromethyl)pyridin-2-yl)oxy)cyclohexyl)-3-(tetrahydrofuran-3-yl)-1H-pyrazolo[4,3-c]pyridin-6-amine], the IC50 in assay [2] and in assay [3] was less than 10 nM throughout.

As to `CCNc1cc2c(cn1)c(N1CC[C@H](OC)C1)nn2[C@H]1CC[C@@H](Oc2nccc(C(F)(F)F)c2F)CC1` [Example 332, N-ethyl-1-((1s,4R)-4-((3-fluoro-4-(trifluoromethyl)pyridin-2-yl)oxy)cyclohexyl)-3-((S)-3-methoxypyrrolidin-1-yl)-1H-pyrazolo[4,3-c]pyridin-6-amine], the IC50 in assay [2] and in assay [3] was less than 10 nM each time.

In the case of `CNc1cc2c(cn1)c(-c1cnn(C)c1)nn2[C@H]1CC[C@@H](Oc2ccccc2F)CC1` [Example 353, 1-((1s,4s)-4-(2-fluorophenoxy)cyclohexyl)-N-methyl-3-(1-methyl-1H-pyrazol-4-yl)-1H-pyrazolo[4,3-c]pyridin-6-amine], the IC50 in assay [2] and in assay [3] was less than 10 nM in each case.

Take `CNc1cc2c(cn1)c(-c1cnn(C)c1)nn2[C@H]1CC[C@@H](Oc2cccc(F)c2)CC1` [Example 354, 1-((1s,4s)-4-(3-fluorophenoxy)cyclohexyl)-N-methyl-3-(1-methyl-1H-pyrazol-4-yl)-1H-pyrazolo[4,3-c]pyridin-6-amine]: the IC50 in assay [2] and in assay [3] was less than 10 nM throughout.

Consider `CNc1cc2c(cn1)c(-c1cnn(C)c1)nn2[C@H]1CC[C@@H](Oc2ccc(F)cc2)CC1` [Example 355, 1-((1s,4s)-4-(4-fluorophenoxy)cyclohexyl)-N-methyl-3-(1-methyl-1H-pyrazol-4-yl)-1H-pyrazolo[4,3-c]pyridin-6-amine], for which the IC50 in assay [2] and in assay [3] was less than 10 nM throughout.

Turning to `CNc1cc2c(cn1)c(-c1cnn(C)c1)nn2[C@H]1CC[C@@H](Oc2cccc(F)c2F)CC1` [Example 357, 1-((1s,4s)-4-(2,3-difluorophenoxy)cyclohexyl)-N-methyl-3-(1-methyl-1H-pyrazol-4-yl)-1H-pyrazolo[4,3-c]pyridin-6-amine], the IC50 in assay [2] and in assay [3] was less than 10 nM each time.

As to `CNc1cc2c(cn1)c(-c1cnn(C)c1)nn2[C@H]1CC[C@@H](Oc2ccc(F)cc2F)CC1` [Example 358, 1-((1s,4s)-4-(2,4-difluorophenoxy)cyclohexyl)-N-methyl-3-(1-methyl-1H-pyrazol-4-yl)-1H-pyrazolo[4,3-c]pyridin-6-amine], the IC50 in assay [2] and in assay [3] was less than 10 nM each time.

In the case of `CNc1cc2c(cn1)c(-c1cnn(C)c1)nn2[C@H]1CC[C@@H](Oc2ccccc2Cl)CC1` [Example 360, 1-((1s,4s)-4-(2-chlorophenoxy)cyclohexyl)-N-methyl-3-(1-methyl-1H-pyrazol-4-yl)-1H-pyrazolo[4,3-c]pyridin-6-amine], the IC50 in assay [2] and in assay [3] was less than 10 nM throughout.

As for `CNc1cc2c(cn1)c(-c1cnn(C)c1)nn2[C@H]1CC[C@@H](Oc2cccc(Cl)c2)CC1` [Example 361, 1-((1s,4s)-4-(3-chlorophenoxy)cyclohexyl)-N-methyl-3-(1-methyl-1H-pyrazol-4-yl)-1H-pyrazolo[4,3-c]pyridin-6-amine], the IC50 in assay [2] and in assay [3] was less than 10 nM throughout.

On to `CNc1cc2c(cn1)c(-c1cnn(C)c1)nn2[C@H]1CC[C@@H](Oc2cc(F)ccc2F)CC1` [Example 362, 1-((1s,4s)-4-(2,5-difluorophenoxy)cyclohexyl)-N-methyl-3-(1-methyl-1H-pyrazol-4-yl)-1H-pyrazolo[4,3-c]pyridin-6-amine], for which the IC50 in assay [2] and in assay [3] was less than 10 nM in each case.

As to `CNc1cc2c(cn1)c(-c1cnn(C)c1)nn2[C@H]1CC[C@@H](Oc2ccccc2C#N)CC1` [Example 363, 2-(((1s,4s)-4-(3-(1-methyl-1H-pyrazol-4-yl)-6-(methylamino)-1H-pyrazolo[4,3-c]pyridin-1-yl)cyclohexyl)oxy)benzonitrile], the IC50 in assay [2] and in assay [3] was less than 10 nM throughout.

In the case of `CNc1cc2c(cn1)c(-c1cnn(C)c1)nn2[C@H]1CC[C@@H](Oc2ccccc2)CC1` [Example 371, N-methyl-3-(1-methyl-1H-pyrazol-4-yl)-1-((1s,4s)-4-phenoxycyclohexyl)-1H-pyrazolo[4,3-c]pyridin-6-amine], the IC50 in assay [2] and in assay [3] was less than 10 nM throughout.

With `CNc1cc2c(cn1)c(-c1cnn(C(C)(C)C#N)c1)nn2[C@H]1CC[C@@H](Oc2ccccc2F)CC1` [Example 394, 2-(4-(1-((1s,4s)-4-(2-fluorophenoxy)cyclohexyl)-6-(methylamino)-1H-pyrazolo[4,3-c]pyridin-3-yl)-1H-pyrazol-1-yl)-2-methylpropanenitrile], the IC50 in assay [2] and in assay [3] was less than 10 nM in each case.

On to `CNc1cc2c(cn1)c(-c1cnn(CCN3CCOCC3)c1)nn2[C@H]1CC[C@@H](Oc2ccccc2F)CC1` [Example 397, 1-((1s,4s)-4-(2-fIuorophenoxy)cyclohexyl)-N-methyl-3-(1-(2-morpholinoethyl)-1H-pyrazol-4-yl)-1H-pyrazolo[4,3-c]pyridin-6-amine], for which the IC50 in assay [2] and in assay [3] was less than 10 nM throughout.

For the compound `CNc1cc2c(cn1)n(-c1cnn(C)c1)nc2[C@H]1CC[C@@H](Oc2ccccc2F)CC1` [Example 479, 3-((1s,4s)-4-(2-fluorophenoxy)cyclohexyl)-N-methyl-1-(1-methyl-1H-pyrazol-4-yl)-1H-pyrazolo[3,4-c]pyridin-5-amine], the IC50 in assay [2] and in assay [3] was less than 10 nM throughout.
